Test results from paper PMC4261083, “An atypical residue in the pore of Varroa destructor GABA-activated RDL receptors affects picrotoxin block and thymol modulation” (Insect Biochemistry and Molecular Biology, 2014).
Numbering of substitutions follows the chain as printed.

How the values were obtained:
[1] = biological target: T1, wild type Drosophila RDL receptor (Drosophila melanogaster, UniProt P25123); experiment: Picrotoxin inhibition of GABA responses, two electrode voltage clamp in Xenopus oocytes; type: cell-based
T1 construct: expressed in transfected cells; host or cells: Xenopus laevis oocytes injected with cRNA
T1 sequence (P25123 45-606): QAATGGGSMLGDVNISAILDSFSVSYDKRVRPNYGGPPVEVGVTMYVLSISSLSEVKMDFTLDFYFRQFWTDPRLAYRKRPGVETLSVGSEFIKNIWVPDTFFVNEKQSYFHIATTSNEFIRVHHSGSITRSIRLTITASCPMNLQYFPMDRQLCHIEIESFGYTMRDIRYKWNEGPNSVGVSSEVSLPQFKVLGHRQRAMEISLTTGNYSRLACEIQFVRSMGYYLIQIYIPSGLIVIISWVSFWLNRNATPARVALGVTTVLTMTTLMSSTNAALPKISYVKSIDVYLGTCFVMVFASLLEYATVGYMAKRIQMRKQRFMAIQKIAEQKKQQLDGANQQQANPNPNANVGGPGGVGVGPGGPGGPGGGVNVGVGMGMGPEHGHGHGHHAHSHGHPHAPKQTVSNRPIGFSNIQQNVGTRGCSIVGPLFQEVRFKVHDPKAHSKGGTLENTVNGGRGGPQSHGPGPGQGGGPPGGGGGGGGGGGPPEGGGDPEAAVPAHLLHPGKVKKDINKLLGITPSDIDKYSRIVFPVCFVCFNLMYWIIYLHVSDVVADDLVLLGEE
Protocol: (§1) X. laevis oocyte-positive females were purchased from NASCO (Fort Atkinson, Wisconsin, USA) and maintained according to standard methods. Harvested stage V-VI Xenopus oocytes were washed in four changes of ND96 (96 mM NaCl, 2 mM KCl, 1 mM MgCl2, 1 mM CaCl2, 5 mM HEPES, pH 7.5), de-folliculated in 1.5 mg ml^−1 collagenase Type 1A for approximately 2 h, washed again in four changes of ND96 and stored in ND96 containing 2.5 mM sodium pyruvate, 0.7 mM theophylline and […].
Drosophila RDL subunit cDNA (kindly gifted from N.Millar) was subcloned into pGEMHE for oocyte expression as previously described ([McGonigle and Lummis, 2010], [Millar et al., 1994]). Site directed mutagenesis was performed with the QuikChange mutagenesis kit (Agilent, La Jolla, CA). cRNA was transcribed in vitro from linearised pGEMHE cDNA template using the mMessage mMachine T7 Transcription kit (Ambion, Austin, Texas, USA). Stage V and VI oocytes were injected with 5 ng cRNA, incubated at 18 °C, and currents recorded 18–24 h post-injection.
Xenopus oocytes were clamped at −60 mV using an OC-725 amplifier (Warner Instruments, Connecticut, USA), Digidata 1322A and the Strathclyde Electrophysiology Software Package (Department of Physiology and Pharmacology, University of Strathclyde, UK), or using the Roboocyte (MultiChannel Systems). Currents were recorded at 5 kHz and filtered at a frequency of 1 kHz. Micro-electrodes were fabricated from borosilicate glass (GC120TF-10, Harvard Apparatus, Edenbridge, Kent, UK) using a one stage horizontal pull (P-87, Sutter Instrument Company, California, USA) and filled with 3 M KCl. Pipette resistances ranged from 1.0 to 2.0 MΩ. Oocytes were perfused with ND96 at a constant rate of 12 ml min^−1. Drug application was via a simple gravity fed system calibrated to run at the same rate.
(§2) Analysis and curve fitting was performed using Prism v5 (GraphPad Software, San Diego, California, USA). Concentration-response data for each oocyte was normalised to the maximum current for that oocyte. The mean and S.E.M. for a series of oocytes were fitted to the four parameter logistic equation in Prism.

[2] = biological target: T2, 4M2 mutant Drosophila RDL receptor (N-7′H, T6′M, A20′S and A21′Q) (Drosophila melanogaster, UniProt P25123, A319S/A320Q/N292H/T305M); type: cell-based; settings: 4M2 RDL
T2 construct: expressed in transfected cells; host or cells: Xenopus laevis oocytes injected with cRNA
T2 sequence (P25123 45-606 N292H/T305M/A319S/A320Q): T1 sequence (P25123 45-606) with N248H, T261M, A275S, A276Q
Protocol: as §1
Site directed mutagenesis was performed with the QuikChange mutagenesis kit (Agilent, La Jolla, CA). cRNA was transcribed in vitro from linearised pGEMHE cDNA template using the mMessage mMachine T7 Transcription kit (Ambion, Austin, Texas, USA). Stage V and VI oocytes were injected with 5 ng cRNA, incubated at 18 °C, and currents recorded 18–24 h post-injection.
Currents were recorded at 5 kHz and filtered at a frequency of 1 kHz. Micro-electrodes were fabricated from borosilicate glass (GC120TF-10, Harvard Apparatus, Edenbridge, Kent, UK) using a one stage horizontal pull (P-87, Sutter Instrument Company, California, USA) and filled with 3 M KCl. […] Oocytes were perfused with ND96 at a constant rate of 12 ml min^−1. Drug application was via a simple gravity fed system calibrated to run at the same rate.
as §2

Molecule | IC50 [1] [nM] | Picrotoxin pIC50 [1] | Effect of thymol on GABA-induced responses ([2]; 100 μM thymol, at some GABA concentrations) | Fold change in EC50 ([2]; GABA EC50 control vs +100 μM thymol) | % Imax ([2]; GABA concentration-response in presence of 100 μM thymol) [%]
picrotoxin | 180 | 6.75 ± 0.22 | – | – | –
Cc1ccc(C(C)C)c(O)c1 [Thymol, thymol] | – | – | inhibition | 3.0 | 52 ± 4
